Source: article PMC12410356 (International Journal for Parasitology: Drugs and Drug …, 2025)
Read-outs that look alike come from different tables or passages of the source.

Tests used:
[1] = system: E. multilocularis metacestode vesicles; experiment: Metacestode vesicle viability assay (ATP, CellTiter-Glo); type: cell-based, Echinococcus multilocularis; conditions: Echinococcus multilocularis, 288 h, 10 μM, 12 days, read-out: Viability d12 (relative viability)
Method: Viability was assessed after 12 days using the same metacestode vesicles as for the PGI release assay. Triton X-100 was added to each well to a final concentration of 0.1 %. Subsequently the metacestode vesicles were broken mechanically and 50 μL of the supernatant was mixed with 50 μL of CellTiter-Glo® buffer (Promega, Dübendorf, Switzerland). Measurements were performed on a HIDEX Sense microplate reader.

[2] = system: Reuber rat hepatoma (RH) cells; experiment: Mammalian cell toxicity, resazurin assay; type: cell-based; conditions: for toxicity against mammalian cell line (in words): RH cells counter-screen; for IC50: 5 days incubation, mean ± SD
Method: Mammalian cell toxicity on RH cells was measured as described in [Rufener et al. (2018)] with few alterations. Briefly, confluent (50′000 cells/well) and pre-confluent (5′000 cells/well) were seeded into 96-well plates in DMEM supplemented with 10 % FBS, penicillin (100 U/mL), streptomycin (100 μg/mL) and tetracycline (5 μg/mL) and incubated at 37 °C under a humid, 5 % CO2 atmosphere for 24 h and 5 h respectively. Alexidine, ESI-09 and MMV1581545 were added to final concentrations ranging from 120 to 0.49 μM (1:3 serial dilution) to each well and then cells were incubated at 37 °C under a humid, 5 % CO2 atmosphere for 5 days. To measure viability, the medium was removed, 180 μL of PBS was added to the cells and resazurin was added to each well to a final concentration of 10 mg/L. The cells were then allowed to process the resazurin at RT for 1 h. Fluorescence was measured on a HIDEX Sense microplate reader. Measurements were performed in triplicates and IC50 values were calculated in R using the three parameter Weibull type 1 model for three independent experiments ([Ritler et al., 2020]).

[3] = system: E. multilocularis metacestode vesicles; experiment: Phosphoglucose isomerase (PGI) release assay (damage-marker release) on metacestode vesicles; type: cell-based, Echinococcus multilocularis; conditions: 10 μM; for PGI d5 (relative PGI release): 5 days; for PGI d12 (relative PGI release): 12 days
[4] = system: E. multilocularis GL cells; experiment: Germinal layer cell viability assay (CellTiter-Glo); type: cell-based, Echinococcus multilocularis; conditions: for effect on GL cell viability (in words): 80 to 0.31 μM, 5 days; for IC50: Echinococcus multilocularis, 120 h, 5 days incubation, microaerobic, mean ± SD of three independent experiments
Method: The isolation of GL cells was conducted according to ([Kaethner et al., 2023]). Briefly, conditioned DMEM (cDMEM) was prepared prior to isolation. For the preparation of cDMEM, 1 × 10^6 RH cells and 10 × 10^6 RH cells incubated in DMEM supplemented with 10 % FBS, penicillin (100 U/mL), streptomycin (100 μg/mL) and tetracycline (5 μg/mL) for six or four days, respectively, at 37 °C under a humid, 5 % CO2 atmosphere. The supernatant of each was mixed 1:1 and sterile filtrated, resulting in cDMEM. Metacestode vesicles of at least 6 months of age were washed with PBS, incubated in distilled H2O for 2.5 min and subsequently mechanically disrupted. The resulting pellet was resuspended in 7 vol of pre-warmed 0.05 % Trypsin/0.02 % EDTA and incubated at 37 °C for 30 min. GL cells were extracted from the laminated layer by vigorous shaking followed by filtration through a 30 μm mesh (Sefar AG, Heiden, Switzerland) and separated from calcareous corpuscles by short centrifugation at 50×g for 30 s at RT. The isolated cells were centrifuged for 10 min at 600×g and RT and the pellet was resuspended in cDMEM. The cell suspension was diluted 1:100 in PBS to measure the OD600. An OD600 value of 0.1 of this dilution was defined as one arbitrary unit (AU) per μL of the undiluted cell suspension corresponding to 0.97 ± 0.11 μg of total protein for the GL cells as measured via Pierce™ bicinchoninic acid (BCA) Protein Assay Kit according to the manufacturer's protocol (Fisher Scientific AG, Reinach, Switzerland). 1′000 AU per 5 mL of cDMEM were cultured at 37 °C overnight under a humid nitrogen atmosphere. The next day, 2′000 AU of GL cells were combined and further cultured for 3 h at 37 °C under a humid nitrogen atmosphere before they were used for further experiments.
To assess effects of compounds on the cell viability of isolated E. multilocularis GL cells, the protocol was applied as previously described ([Kaethner et al., 2023]). In short, 15 AU of GL cells were distributed into each well of a black 384-well plate. Compounds dissolved in DMSO (alexidine, carbendazim, ESI-09, MMV1581545 and oxfendazole) were added to final concentrations ranging from 80 to 0.31 μM (1:2 serial dilution) and the cells were cultured for 5 days at 37 °C under a humid, microaerobic atmosphere (85 % N2, 10 % CO2, 5 % O2). DMSO with the respective concentration was used as a solvent control. Viability was measured using the CellTiter-Glo® kit. Luminescence was measured using a HIDEX Sense microplate reader. Measurements were done in quadruplicates and represented as relative viability of the DMSO controls. IC50 values were calculated in R applying the five parameter logistic model for three independent experiments ([Ritler et al., 2020]).

[5] = system: E. multilocularis metacestode vesicles; conditions: PGI release after five days, cited from earlier work
[6] = system: E. multilocularis GL cells; set-up: method as in Stadelmann et al., 2016; conditions: ref Stadelmann et al., 2016; cited from earlier work
[7] = system: Reuber rat hepatoma (RH) cells; conditions: cited from earlier work
HUVEC cell line = system: HUVEC cell line; set-up: method as in Mamouei et al., 2018; conditions: at 15 μM; ref Mamouei et al., 2018; cited from earlier work
[8] = system: E. multilocularis GL cells; experiment: Seahorse mito cell stress test, oxygen consumption rate; type: cell-based, Echinococcus multilocularis; conditions: titration in GL cells
Method: To measure mitochondrial respiration in E. multilocularis GL cells, Seahorse “mito cell stress test” was performed according to the manual for Seahorse XFp Extracellular Flux Analyzer (Agilent Technologies, Basel, Switzerland) with some adaptations ([Gu et al., 2021]; [Rufener et al., 2018]). Seahorse XFp 8-well plates were hydrated and incubated together with Seahorse XF calibrant solution at 37 °C in a non-CO2 incubator overnight the day before the actual experiment. […] Oligomycin was used at a final concentration of 1.5 μM. […] The experiment was repeated three times independently with two technical replicates.

[9] = confirmation screen, triplicates, mean
[10] = overview screen, singlets, relative to DMSO control
[11] = Rattus norvegicus, 120 h, confluent, read-out: IC50 confluent RH cells
[12] = Rattus norvegicus, 120 h, pre-confluent, read-out: IC50 pre-confluent RH cells
[13] = overview screen, singlets, relative to 0.1 % Triton X-100, DMSO subtracted
[14] = confluent, ref Rufener et al., 2018, read-out: IC50 confluent RH cells
[15] = pre-confluent, ref Rufener et al., 2018, read-out: IC50 pre-confluent RH cells

IC50 [4] | Compound | viability at 10 µM [1, 9] | viability at 10 µM [1, 10] | toxicity against mammalian cell line (in words) [2] | IC50 [2, 11] | IC50 [2, 12] | PGI d5 (relative PGI release) [3, 9] | PGI d12 (relative PGI release) [3, 9] | PGI d5 (relative PGI release) [3, 13] | PGI d12 (relative PGI release) [3, 13] | effect on GL cell viability (in words) [4] | IC50 ([5]; ref Rufener et al., 2018) | IC50 [7, 14] | IC50 [7, 15] | further results
7.89 ± 1.43 µM | Cc1cc(O)c2c(c1)C(=O)c1c(I)c(C)c(I)c(O)c1C2=O [MMV1581545] | 19.1% | 16.4% | moderate toxicity | 21.3 ± 4.39 µM | 13.8 ± 1.09 µM | 10.14% | 30.09% | 18.0887% | 27.8991% | highly effective |  |  |  | IC50 ([2]; pre-confluent, read-out: IC50 pre-confluent RH cells): 14.7 ± 2.09 µM
 | O=C(Nc1cccc(C(F)(F)F)c1)c1cc(Cl)ccc1O [MMV665807] |  |  |  |  |  |  |  |  |  |  |  |  |  | IC50 ([5]; ref Stadelmann et al., 2016): 1.2 ± 1.6 µM; IC50 [6]: 0.6 ± 0.37 µM; IC50 ([7]; confluent, ref Stadelmann et al., 2016, read-out: IC50 confluent RH cells): 20.5 ± 0.13 µM; IC50 ([7]; pre-confluent, ref Stadelmann et al., 2016, read-out: IC50 pre-confluent RH cells): 4.8 ± 0.59 µM
 | CC(C)(C)[C@H]1CC[C@H](CC2=C(O)C(=O)c3ccccc3C2=O)CC1 [buparvaquone] |  |  |  |  |  |  |  |  |  |  | 2.87 ± 1.45 µM | 17.4 ± 2.09 µM | 8.47 ± 3.89 µM | 
10.7 ± 1.13 µM | CCCCC(CC)CNC(=N)NC(=N)NCCCCCCNC(=N)NC(=N)NCC(CC)CCCC (stereo not drawn) [alexidine, reference compound] | 34.4 ± 0.9% | 4.93% | highly toxic | 5.97 ± 4.89 µM | 2.8 ± 1.33 µM | 32.36% | 76.1 ± 3.2% | 68.8052% | 92.491% | highly effective |  |  |  | PGI d12 (relative PGI release) ([3]; confirmation screen, triplicates, mean, listed as MMV396785): 76.16%; toxicity in the HUVEC cell line (in words) (HUVEC cell line): severe toxicity
 | N#CC(C#N)=NNc1ccc(OC(F)(F)F)cc1 [FCCP] |  |  |  |  |  |  |  |  |  |  |  |  |  | optimal (maximal) uncoupling concentration [8]: 0.4 µM
 | Cc1[nH]c2cc(F)cc(F)c2c(=O)c1-c1ccc(Oc2ccc(OC(F)(F)F)cc2)cc1 [ELQ-400] |  |  |  |  |  |  |  |  |  |  | 0.02 ± 0.01 µM | 2.07 ± 1.67 µM | 0.25 ± 0.11 µM | 
